According to patent publication US9688653B2, “Ethoxyphenyl thienyl compounds and methods for the treatment of bacterial infections” (Duke University, priority 2013, dated 2017):

Tests used:
E. coli K1 strain UTI89 [1] = assay: microbe, parasite or virus in culture; conditions: for % Inhibition at 100 μM: HTS primary screen
From the text: The ability of the […] to bind to bacterial capsule, infect, and lyse E. coli UT189 was used as the primary assay to identify the effects of screened compounds on bacterial capsule formation. The phenotypic end-point assay measured the fluorescence generated by cellular processing of Alamar Blue as a direct indicator of cell viability. A total of […] compounds were screened using the primary assay. […] Hits were further evaluated using […] secondary assays for alternative measurement of compound-induced reduction in bacterial capsule formation (secondary assays 1 and 2) and specificity (secondary assays 3 and 4). Confirmed actives with an SI>5 were further investigated and subjected to chemical optimization, followed by secondary assay evaluation. Secondary assays more closely characterized the ability of the compounds to reduce bacterial capsule formation and can be used to examine the mechanism of action of the compounds. The combination of primary assay (to measure capsule reduction), counter assay (for general eukaryotic cell toxicity) and secondary assay (to measure reduction in capsule formation and specificity) were combined to allow a determination of probe efficacy, selectivity, and specificity.
A. Primary Assay: Screening for Inhibitors of Bacterial Capsule Biogenesis.
Primary assay: An end-point assay to measure the amount of K1 phage-induced bacterial cell lysis was employed to determine the compound effect on capsule biogenesis. K1 bacteriophage specifically binds the bacterial capsule during the initial stages of infection. Bacteria without capsule cannot be infected and lysed by the bacteriophage. […] A total of 338,740 compounds were screened at 100 μM in the primary screen Inhibition of phage lysis was calculated relative to the mean of the bacterial (positive) control on each microtiter plate. […] For calculation of S/B/Z value, and CV, the following formulae (in which SD stands for standard deviation) were used: S/B=mean signal/mean background; Z=1-3SD of sample+3SD of control mean of sample−mean of control; % CV=(SD mean signal/mean signal)×100.
IC50 values were calculated using a 4 parameter Levenburg-Marquardt algorithm, with the maximum and minimum locked at 0 and 100 respectively.
Primary assay: The primary assay was conducted in the 1,536 well plate format. Bacterial cultures of E. coli K1 strain UTI89 (cystitis isolate) and isogenic capsule mutant strains (as controls for phage infection) were grown and prepared at the screening center immediately prior to use. Overnight starting cultures of UTI89 were grown at 37° C., and inoculated into 1 liter of LB (starting OD600˜0.03), which was sufficient for screening 40 plates (including ˜10% waste) and ˜40,000 compounds as single points.
Control wells contained UTI89 (wt K1) with 0.5% DMSO as a simulated positive control; UTI89 with 0.5% DMSO and tetracycline for a negative growth control; and media plus vehicle control. 50 mL of LB Broth was inoculated with stock 150 μL E. coli UT189 and grown overnight at 37° C. The next day, cultures were diluted 1:75 in 1 L of LB Broth containing 0.5% DMSO. 3 μL of this culture was added to each plate well, and plates were incubated, inverted, at 37° C. for 2 hr. The K1F bacteriophage stock was diluted 1:8 in LB Broth containing 0.5% DMSO, and 1.5 μL of diluted phage (or media only) was added to the pre-plated test compound wells and appropriate control wells. The plates were centrifuged briefly, and then were incubated, inverted, at 37° C. for an additional 2 hr. Afterward, Alamar Blue reagent (Invitrogen, #DAL1100) was diluted 1:2 with LB broth and 1 μL was added to each plate well.

E. coli K1 strain UTI89 [2] = assay: Secondary assay 2: T7 phage-mediated lysis assay; assay type: cell-based, Escherichia coli; conditions: read-out: T7 phage IC50
From the text: D. Secondary Assay 2: Screening for Inhibitors of Bacterial Capsule Biogenesis—T7 Lysis Inhibition
Purpose: This secondary assay measures the compound mechanistic specificity for inhibition of bacterial capsule formation and excludes inhibitors of phage replication using a different bacteriophage (T7). In this assay, an increase in phage-induced lysis correlates to a decrease in capsule formation.
Purpose: This secondary assay measures the compound mechanistic specificity for inhibition of bacterial capsule formation using a different bacterial phage (T7). In this assay, an increase in phage-induced lysis correlates to a decrease in capsule formation.
Assay Description: T7 phage-mediated lysis assay: This assay determined if the mechanism of action of the compound is inhibition of phage infectivity or replication. The T7 phage has a nearly identical genome to K1F, without encoding an endosialidase. Its cycle of replication is similar to that of K1F as well. However, T7 entry into E. coli is inhibited by K capsules. This secondary assay was conducted in the 96 well plate format. […] Compounds were added in quadruplicate to plates in a concentration dependent manner in the range of 100-0.39 μM, followed by addition of 100 μL of bacterial culture. 1% DMSO (final well concentration) was included. The plates were tape sealed and shaken vigorously for 1.5 hr. An initial OD600 reading was measured to identify compounds that cause growth retardation or bacterial killing in the absence of phage. Next, T7 phage (5 μL) was added to all of the test wells. The plates were resealed and shaken vigorously at 37° C., and measurements of OD600 for phage-mediated lysis were taken after 3 hr. True inhibitors of capsule yielded bacteria that were susceptible to T7 phage and lysed within 2 hr of the addition of phage. […] The positive control drug C7 (100 μM final well concentration) was used in this screen.
T7 phage counter assay. This secondary assay was performed as previously described and was used to distinguish compounds with phage inhibitory effects from true polysaccharide capsule inhibitors. […] Thus, the presence of a capsule inhibits T7-mediated lysis. In this assay, an increase in phage-induced lysis correlates to a decrease in capsule formation. True inhibitors of capsule yielded bacteria that were susceptible to T7 phage and lysed within 2 hr of the addition of phage. […] The positive control molecule C7 (100 μM final well concentration) was used in this screen.

[3] = test system: Bladder carcinoma 5637 cells; assay: Cytotoxicity counterscreen, CellTiter Glo, 72 hr; assay type: cell-based, human
Procedure: B. Counterscreen: Cytotoxicity Screening for Potential Inhibitors of Bacterial Capsule Biogenesis.
Purpose: This cell-based assay measures the cytotoxicity of compounds in bladder carcinoma 5637 cells using luminescent cell viability assay readout.
Cytotoxicity assay: The cytotoxicity assay was performed as described in Section 6: Appendix. Hit cytotoxicity and the 50% toxic concentration (CC50) was determined and compared to the IC50 to calculate the selectivity index.
Assay Description: Cytotoxicity: Dose response testing (dose range=300-0.58 μM) established the hit cytotoxicity data. Compounds were plated in 384-well microplates in a stacked dose response format using the same doses used in the efficacy dose response. Bladder carcinoma 5637 cells were added to the compounds, and 72 hr later cell viability was measured using CellTiter Glo (38). Hit cytotoxicity and the 50% toxic concentration (TC50) was determined and compared to the IC50 to calculate the therapeutic index. Test compounds are serially diluted in a plate to plate matrix or stacked plate matrix. All 320 compounds in a source plate are diluted together resulting in a 10 point dose response dilution series. It is visualized as a serial dilution series proceeding vertically through a stack of plates with the high dose plate on top and the low dose plate on the bottom.
Control Drug: Hyamine was used as a positive cytotoxic control. All wells contained 0.5% DMSO.
Preparation of Bladder carcinoma 5637 cells: Cells are harvested and resuspended to 80,000 cells per ml in Complete DMEM/F12®.
Endpoint Read: Following the three day incubation period, the assay plates were equilibrated to room temperature for 30 min and an equal volume (30 μL) of Cell Titer-Glo® reagent (Promega Inc.) is added to each well using a WellMate™ (Matrix, Hudson, N.H.) and plates are incubated for an additional 10 min at room temperature. At the end of the incubation, luminescence is measured using a Perkin Elmer Envision™ multi-label reader (PerkinElmer, Wellesley, Mass.) with an integration time of 0.1 s.
Cytotoxicity. Testing was performed essentially as previously described. Concentration-response testing was performed over a range 0.58-300 μM in a […] well plate format. Bladder carcinoma 5637 cells (ATCC HTB-9) were added to the compounds, and 72 hrs later cell viability was measured using CellTiter Glo (Promega). The 50% toxic concentration (TC50) was determined and compared to the IC50 to calculate the therapeutic index. Hyamine was used as a positive cytotoxic control. All wells contained 0.5% DMSO.

[4] = read-out: K1 phage IC50 (inhibition of K1 capsule formation)

Compound: CCOc1ccc(-c2cc(NC(=O)c3c(F)cccc3F)c(C(=O)OC)s2)cc1 [CID 16012549]
- IC50 (E. coli K1 strain UTI89 [1]; [4]): > 100 µM

Compound: CCOc1ccc(-c2cc(NC(=O)c3ccc(Br)o3)c(C(=O)O)s2)cc1 [CID 23602086, 3-(5-Bromofuran-2-carboxamido)-5-(4-ethoxyphenyl)thiophene-2-carboxylic acid]
- IC50 (E. coli K1 strain UTI89 [2]; Escherichia coli): < 10 µM
- IC50 (E. coli K1 strain UTI89 [1]; [4]): 3.42 µM

Compound: COc1ccc(-c2cc(NC(=O)c3c(F)cccc3F)c(C(=O)O)s2)cc1 [CID 53470430]
- IC50 (E. coli K1 strain UTI89 [1]; [4]): > 100 µM

Compound: O=C(O)c1sc(-c2ccc(OCC(F)(F)F)cc2)cc1NC(=O)c1c(F)cccc1F [CID 56643002]
- IC50 (E. coli K1 strain UTI89 [1]; [4]): 2.86 µM

Compound: CCCCOc1ccc(-c2cc(NC(=O)c3c(F)cccc3F)c(C(=O)O)s2)cc1 [CID 56643007]
- IC50 (E. coli K1 strain UTI89 [1]; [4]): < 0.78 µM

Compound: O=C(O)c1sc(-c2ccc(OCCC(F)(F)F)cc2)cc1NC(=O)c1c(F)cccc1F [CID 56643020]
- IC50 (E. coli K1 strain UTI89 [2]): < 0.156 µM
- Cytotoxicity CC50 / TC50 / IC50 ([3]; bladder carcinoma 5637 cells): 68.41 µM
- IC50 (E. coli K1 strain UTI89 [1]; [4]): 0.84 µM

Compound: CCCCOc1ccc(-c2cc(NC(=O)c3ccc(Br)o3)c(C(=O)O)s2)cc1 [CID 56643021]
- IC50 (E. coli K1 strain UTI89 [2]; second round of synthetic analogues, n = 2): < 0.625 µM
- IC50 [3]: 43.4 µM
- IC50 (E. coli K1 strain UTI89 [1]; [4]): 0.85 µM

Compound: O=C(Nc1cc(-c2ccc(OCCC(F)(F)F)cc2)sc1C(=O)O)c1ccc(Br)o1 [CID 56643022]
- IC50 (E. coli K1 strain UTI89 [2]; five probe analogues): < 0.625 µM
- IC50 [3]: 41.7 µM
- IC50 (E. coli K1 strain UTI89 [1]; read-out: K1 phage IC50, five probe analogues): 0.84 µM

Compound: O=C(O)c1sc(-c2ccc(OCCCC(F)(F)F)cc2)cc1NC(=O)c1c(F)cccc1F [CID 56643024]
- IC50 (E. coli K1 strain UTI89 [1]; [4]): 10.3 µM

Compound: [N-]=[N+]=NCCOc1ccc(-c2cc(NC(=O)c3c(F)cccc3F)c(C(=O)O)s2)cc1 [CID 56643025]
- IC50 (E. coli K1 strain UTI89 [1]; Escherichia coli, read-out: K1 phage IC50 (inhibition of K1 capsule formation)): ~17 µM

Compound: COC(=O)c1sc(-c2ccc(Cl)cc2)cc1NC(=O)c1ccccc1C(=O)O [compound 2814791]
- % Inhibition at 100 μM (E. coli K1 strain UTI89 [1]): −0.17%

Compound: COC(=O)c1sc(-c2ccccc2)cc1NC(=O)c1ccc(F)cc1 [compound 3669658]
- % Inhibition at 100 μM (E. coli K1 strain UTI89 [1]): 2.58%

Compound: COC(=O)c1sc(-c2ccccc2)cc1NC(C)=O [compound 4114774]
- % Inhibition at 100 μM (E. coli K1 strain UTI89 [1]): 0.68%

Compound: COC(=O)c1sc(-c2ccccc2)cc1NC(=O)c1ccccc1 [compound 6710528]
- % Inhibition at 100 μM (E. coli K1 strain UTI89 [1]): 4.18%
